Columns and labels:
P2X4 [1] = biological target: T1, P2X4 (Homo sapiens, UniProt Q99571); assay: Assay A: human P2X4 receptor cell line, FLIPR calcium assay (Fluo-8, agonist Bz-ATP at EC80); type: cell-based; design: host or cells: HEK 293 (recombinant, constitutively expressing; with mitochondrial photina in Assay B); conditions: HEK human P2X4 cells, Fluo-8 FLIPR; for IC50: Bz-ATP at EC80, average values; for Emax: percentage of maximal inhibition, read-out: human P2X4 Assay A avg Efficacy
T1 sequence (Q99571 1-388): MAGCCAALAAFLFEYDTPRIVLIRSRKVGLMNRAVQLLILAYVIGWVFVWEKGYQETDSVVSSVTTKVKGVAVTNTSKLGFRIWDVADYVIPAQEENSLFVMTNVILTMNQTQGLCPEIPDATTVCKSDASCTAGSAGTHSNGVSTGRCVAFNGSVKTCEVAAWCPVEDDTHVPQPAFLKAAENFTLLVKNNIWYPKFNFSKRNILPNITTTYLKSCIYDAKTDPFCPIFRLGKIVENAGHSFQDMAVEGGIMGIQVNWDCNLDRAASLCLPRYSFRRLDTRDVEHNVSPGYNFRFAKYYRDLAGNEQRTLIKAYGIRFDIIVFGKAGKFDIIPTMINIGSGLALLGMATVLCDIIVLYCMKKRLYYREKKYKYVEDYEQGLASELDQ
Experimental: A fluorescent imaging plate reader (FLEX/FLIPR station; Molecular Devices) was used to monitor intracellular calcium levels using the calcium-chelating dye Fluo-8 (Molecular Probes). […] Cells expressing purinergic receptors human P2X4 (HEK human P2X4: PerkinElmer, Product No.: AX-015-PCF) were plated at a density of 20,000 cells/well in poly-D-lysine-coated 384-well plates approximately 20 hours before beginning the assay. On the day of the assay, the medium was removed and 30 μl of dye buffer (Hank's balanced salt solution, 10 mM HEPES, 1.8 mM CaCl2), 1 mM MgCl2, 2 mM probenecid, 5 mM D-glucose monohydrate, 5 μM Fluo-8, pH=7.4) was added for 30 min at […] and 5% CO2. The antagonist in probenecid buffer (Hank's balanced salt solution, 10 mM HEPES, 1.8 mM CaCl2, 1 mM MgCl2, 2 mM probenecid, 5 mM D-glucose monohydrate, pH=7.4) was added in a volume of 10 μl and allowed to incubate for 30 min at room temperature. The final assay DMSO concentration is 0.5%. The agonist, Bz-ATP, is added in a volume of 10 μl at a concentration representing the EC80 value. The fluorescence was measured for an interval of 120 sec at 2 sec intervals and analyzed based on the increase in peak relative fluorescence units (RFU) compared to the basal fluorescence. Peak fluorescence was used to determine the response to agonist obtained at each concentration of antagonist by the following equation:
% Response=100*(RFU(drug)−RFU(control))/(RFU(DMSO)−RFU(control))
The compounds were tested in triplicates per plate and mean values were plotted in Excel XLFit to determine IC50 values, percentage of maximal inhibition and the Hill coefficients.

P2X4 [2] = biological target: T1, P2X4; assay: Assay B: human P2X4 receptor cell line, mitochondrial photina luminescence (agonist Bz-ATP at EC50); type: cell-based; design: host or cells: HEK 293 (recombinant, constitutively expressing; with mitochondrial photina in Assay B); conditions: HEK human P2X4 cell line, photina luminescence, agonist Bz-ATP at EC50, average; for Emax: read-out: human P2X4 Assay B avg Efficacy
How it was run: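 Recombinant cell line constitutively expressing human P2X4 and mitochondrial photina photoprotein, reconstituted with coelenterazine. Receptor stimulated with Bz-ATP at EC50; calcium influx read immediately as luminescence.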

| SMILES | IC50 (P2X4 [1]) [nM] | Emax (P2X4 [1]) [%] | IC50 (P2X4 [2]) [nM] | Emax (P2X4 [2]) [%] |
| --- | --- | --- | --- | --- |
| CC(=O)c1cccc(Oc2ccc(NC(=O)Cc3ccccc3Cl)cc2S(N)(=O)=O)c1 [Example 007, N-[4-(3-Acetylphenoxy)-3-sulfamoylphenyl]-2-(2-chlorophenyl)acetamide] | 16 | 93 | 122 | 104 |
| NS(=O)(=O)c1cc(NC(=O)Cc2ccccc2Cl)ccc1Oc1ccc2c(c1)OCO2 [Example 008, N-[4-(1,3-Benzodioxol-5-yloxy)-3-sulfamoylphenyl]-2-(2-chlorophenyl)acetamide] | 44 | 88 | 73 | 91 |
| NS(=O)(=O)c1cc(NC(=O)Cc2ccccc2Cl)ccc1Oc1ccccc1F [Example 010, 2-(2-Chlorophenyl)-N-[4-(2-fluorophenoxy)-3-sulfamoylphenyl]acetamide] | 27 | 90 | 73 | 76 |
| NS(=O)(=O)c1cc(NC(=O)Cc2ccccc2Cl)ccc1Oc1cccc(F)c1 [Example 011, 2-(2-Chlorophenyl)-N-[4-(3-fluorophenoxy)-3-sulfamoylphenyl]acetamide] | 41 | 85 | 43 | 67 |
| CS(=O)(=O)c1cccc(Oc2ccc(NC(=O)Cc3ccccc3Cl)cc2S(N)(=O)=O)c1 [Example 016, 2-(2-Chlorophenyl)-N-{4-[3-(methylsulfonyl)phenoxy]-3-sulfamoylphenyl}acetamide] | 96 | 81 | 112 | 72 |
| Cc1cccc(Oc2ccc(NC(=O)Cc3ccccc3Cl)cc2S(N)(=O)=O)c1 [Example 018, 2-(2-Chlorophenyl)-N-[4-(3-methylphenoxy)-3-sulfamoylphenyl]acetamide] | 9 | 93 | 47 | 70 |
| NS(=O)(=O)c1cc(NC(=O)Cc2ccccc2Cl)ccc1Oc1cccc(-n2cnnc2)c1 [Example 020, 2-(2-Chlorophenyl)-N-{3-sulfamoyl-4-[3-(4H-1,2,4-triazol-4-yl)phenoxy]phenyl}acetamide] | – | 90 | – | 96 |
| COc1cccc(Oc2ccc(NC(=O)Cc3ccccc3Cl)cc2S(N)(=O)=O)c1 [Example 022, 2-(2-Chlorophenyl)-N-[4-(3-methoxyphenoxy)-3-sulfamoylphenyl]acetamide] | – | 87 | – | 54 |
| NS(=O)(=O)c1cc(NC(=O)Cc2ccccc2Cl)ccc1Oc1cccc(OC(F)F)c1 [Example 024, 2-(2-Chlorophenyl)-N-{4-[3-(difluoromethoxy)phenoxy]-3-sulfamoylphenyl}acetamide] | 114 | 82 | 32 | 57 |
| NS(=O)(=O)c1cc(NC(=O)Cc2ccccc2Cl)ccc1Oc1cccc(N2CCOCC2)c1 [Example 026, 2-(2-Chlorophenyl)-N-{4-[3-(morpholin-4-yl)phenoxy]-3-sulfamoylphenyl}acetamide] | 21 | 95 | 82 | 71 |
| NS(=O)(=O)c1cc(NC(=O)Cc2ccccc2Cl)ccc1Oc1cccnc1 [Example 028, 2-(2-Chlorophenyl)-N-[4-(pyridin-3-yloxy)-3-sulfamoylphenyl]acetamide] | – | 75 | – | 79 |
| NS(=O)(=O)c1cc(NC(=O)Cc2ccccc2Cl)ccc1Oc1cccc(C(F)F)c1 [Example 031, 2-(2-Chlorophenyl)-N-{4-[3-(difluoromethyl)phenoxy]-3-sulfamoylphenyl}acetamide] | 24 | 76 | 122 | 71 |
| COc1ccccc1Oc1ccc(NC(=O)Cc2ccccc2Cl)cc1S(N)(=O)=O [Example 032, 2-(2-Chlorophenyl)-N-[4-(2-methoxyphenoxy)-3-sulfamoylphenyl]acetamide] | 14 | 100 | 57 | 82 |
| NS(=O)(=O)c1cc(NC(=O)Cc2ccccc2Cl)ccc1Oc1cccc(C(=O)NC2CC2)c1 [Example 037, 3-(4-{[(2-Chlorophenyl)acetyl]amino}-2-sulfamoylphenoxy)-N-cyclopropylbenzamide] | 63 | 70 | 188 | 56 |
| NS(=O)(=O)c1cc(NC(=O)Cc2ccccc2Cl)ccc1Oc1cc(Cl)ccn1 [Example 039, 2-(2-chlorophenyl)-N-{4-[(4-chloropyridin-2-yl)oxy]-3-sulfamoylphenyl}acetamide] | 7 | 89 | 140 | 65 |
| NS(=O)(=O)c1cc(NC(=O)Cc2ccccc2Cl)ccc1Oc1ccc(N2CCCC2=O)cc1 [Example 043, 2-(2-Chlorophenyl)-N-{4-[4-(2-oxopyrrolidin-1-yl)phenoxy]-3-sulfamoylphenyl}acetamide] | 515 | 85 | 671 | 68 |
| N#Cc1cc(Oc2ccc(NC(=O)Cc3ccccc3Cl)cc2S(N)(=O)=O)ccc1F [Example 047, 2-(2-Chlorophenyl)-N-[4-(3-cyano-4-fluorophenoxy)-3-sulfamoylphenyl]acetamide] | 7 | 69 | 862 | 57 |
| NS(=O)(=O)c1cc(NC(=O)Cc2ccccc2Cl)ccc1Oc1cccc(N2CCCC2=O)c1 [Example 050, 2-(2-Chlorophenyl)-N-{4-[3-(2-oxopyrrolidin-1-yl)phenoxy]-3-sulfamoylphenyl}acetamide] | 5 | 94 | 112 | 87 |
| NS(=O)(=O)c1cc(NC(=O)Cc2ccccc2Cl)ccc1Oc1cccc(N2CCOC2=O)c1 [Example 051, 2-(2-Chlorophenyl)-N-{4-[3-(2-oxo-1,3-oxazolidin-3-yl)phenoxy]-3-sulfamoylphenyl}acetamide] | 20 | 87 | 124 | 83 |
| NS(=O)(=O)c1cc(NC(=O)Cc2ccccc2Cl)ccc1Oc1cccc(C(=O)N2CCOCC2)c1 [Example 052, 2-(2-Chlorophenyl)-N-{4-[3-(morpholin-4-ylcarbonyl)phenoxy]-3-sulfamoylphenyl}acetamide] | – | 85 | – | 66 |
| CC1(COc2ccc(NC(=O)Cc3ccccc3Cl)cc2S(N)(=O)=O)CCOCC1 [Example 053, 2-(2-Chlorophenyl)-N-{4-[(4-methyltetrahydro-2H-pyran-4-yl)methoxy]-3-sulfamoylphenyl}acetamide] | 197 | 90 | 859 | 84 |
| NS(=O)(=O)c1cc(NC(=O)Cc2ccccc2Cl)ccc1OCC1(F)CCOCC1 [Example 054, 2-(2-chlorophenyl)-N-{4-[(4-fluorotetrahydro-2H-pyran-4-yl)methoxy]-3-sulfamoylphenyl}acetamide] | 68 | 94 | 578 | 84 |
| NS(=O)(=O)c1cc(NC(=O)Cc2ccccc2Cl)ccc1Oc1cccc(Br)c1 [Example 059, N-[4-(3-Bromophenoxy)-3-sulfamoylphenyl]-2-(2-chlorophenyl)acetamide] | 45 | 85 | 75 | 70 |
| Cc1nc(-c2cccc(Oc3ccc(NC(=O)Cc4ccccc4Cl)cc3S(N)(=O)=O)c2)cs1 [Example 061, 2-(2-Chlorophenyl)-N-{4-[3-(2-methyl-1,3-thiazol-4-yl)phenoxy]-3-sulfamoylphenyl}acetamide] | 53 | 88 | 147 | 72 |
